Experimental data reported in the supplement of paper PMC10307832.

Legend:
Test in all cases: relative viability (nuclei count vs DMSO), 5 days (fraction); higher = more cells survive
Vorinostat + Trametinib = compound: O=C(CCCCCCC(=O)Nc1ccccc1)NO [Vorinostat] + CC(=O)Nc1cccc(-n2c(=O)n(C3CC3)c(=O)c3c(Nc4ccc(I)cc4F)n(C)c(=O)c(C)c32)c1 [Trametinib] (partner 0.02 µM)
In short: (§1)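 After 5 days of treatment, lung cancer cells in 1536-well plates were fixed and stained in a single step (final 0.05% Triton X-100, 1% formaldehyde, 1 ug/ml Hoechst) and their nuclei counted on 4× images. Treatment had been applied by pin tool the day after seeding as one drug alone or as a fixed anchor-drug dose with five library-drug doses (not always all listed) in √10 steps. Relative viability is the nuclei count of treated wells divided by that of vehicle wells, and values are medians of duplicate plates.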

Vorinostat + Foretinib = compound: O=C(CCCCCCC(=O)Nc1ccccc1)NO [Vorinostat] + COc1cc2c(Oc3ccc(NC(=O)C4(C(=O)Nc5ccc(F)cc5)CC4)cc3F)ccnc2cc1OCCCN1CCOCC1 [Foretinib] (partner 0.25 µM)
In short: as §1

Vorinostat + Lapatinib = compound: O=C(CCCCCCC(=O)Nc1ccccc1)NO [Vorinostat] + CS(=O)(=O)CCNCc1ccc(-c2ccc3ncnc(Nc4ccc(OCc5cccc(F)c5)c(Cl)c4)c3c2)o1 [Lapatinib] (partner 2 µM)
In short: as §1

Vorinostat + Linsitinib = compound: O=C(CCCCCCC(=O)Nc1ccccc1)NO [Vorinostat] + C[C@]1(O)C[C@@H](c2nc(-c3ccc4ccc(-c5ccccc5)nc4c3)c3c(N)nccn32)C1 [Linsitinib] (partner 1 µM)
In short: as §1

Vorinostat + Dasatinib = compound: O=C(CCCCCCC(=O)Nc1ccccc1)NO [Vorinostat] + Cc1nc(Nc2ncc(C(=O)Nc3c(C)cccc3Cl)s2)cc(N2CCN(CCO)CC2)n1 [Dasatinib] (partner 0.075 µM)
In short: as §1

NCI-H2126
relative viability (Vorinostat + Trametinib; first compound 0.253 µM): 0.612
relative viability (Vorinostat + Trametinib; first compound 0.8 µM): 0.533
relative viability (Vorinostat + Trametinib; first compound 2.53 µM): 0.296
relative viability (Vorinostat + Trametinib; first compound 8 µM): 0.166
relative viability (Vorinostat + Foretinib; first compound 0.253 µM): 1.14
relative viability (Vorinostat + Foretinib; first compound 0.8 µM): 0.968
relative viability (Vorinostat + Foretinib; first compound 2.53 µM): 0.365
relative viability (Vorinostat + Foretinib; first compound 8 µM): 0.235
relative viability (Vorinostat + Lapatinib; first compound 0.253 µM): 0.75
relative viability (Vorinostat + Lapatinib; first compound 0.8 µM): 0.733
relative viability (Vorinostat + Lapatinib; first compound 2.53 µM): 0.562
relative viability (Vorinostat + Lapatinib; first compound 8 µM): 0.22
relative viability (Vorinostat + Linsitinib; first compound 0.253 µM): 0.581
relative viability (Vorinostat + Linsitinib; first compound 0.8 µM): 0.68
relative viability (Vorinostat + Linsitinib; first compound 2.53 µM): 0.456
relative viability (Vorinostat + Linsitinib; first compound 8 µM): 0.224
relative viability (Vorinostat + Dasatinib; first compound 0.253 µM): 0.608
relative viability (Vorinostat + Dasatinib; first compound 0.8 µM): 0.566
relative viability (Vorinostat + Dasatinib; first compound 2.53 µM): 0.216
relative viability (Vorinostat + Dasatinib; first compound 8 µM): 0.158

COR-L 105
relative viability (Vorinostat + Trametinib; first compound 0.253 µM): 0.546
relative viability (Vorinostat + Trametinib; first compound 0.8 µM): 0.542
relative viability (Vorinostat + Trametinib; first compound 2.53 µM): 0.343
relative viability (Vorinostat + Trametinib; first compound 8 µM): 0.288
relative viability (Vorinostat + Foretinib; first compound 0.253 µM): 1.27
relative viability (Vorinostat + Foretinib; first compound 0.8 µM): 0.996
relative viability (Vorinostat + Foretinib; first compound 2.53 µM): 0.915
relative viability (Vorinostat + Foretinib; first compound 8 µM): 0.246
relative viability (Vorinostat + Lapatinib; first compound 0.253 µM): 0.425
relative viability (Vorinostat + Lapatinib; first compound 0.8 µM): 0.287
relative viability (Vorinostat + Lapatinib; first compound 2.53 µM): 0.252
relative viability (Vorinostat + Lapatinib; first compound 8 µM): 0.249
relative viability (Vorinostat + Linsitinib; first compound 0.253 µM): 1.1
relative viability (Vorinostat + Linsitinib; first compound 0.8 µM): 1.16
relative viability (Vorinostat + Linsitinib; first compound 2.53 µM): 0.394
relative viability (Vorinostat + Linsitinib; first compound 8 µM): 0.222
relative viability (Vorinostat + Dasatinib; first compound 0.253 µM): 0.377
relative viability (Vorinostat + Dasatinib; first compound 0.8 µM): 0.394
relative viability (Vorinostat + Dasatinib; first compound 2.53 µM): 0.259
relative viability (Vorinostat + Dasatinib; first compound 8 µM): 0.196

NCI-H727
relative viability (Vorinostat + Trametinib; first compound 0.253 µM): 0.369
relative viability (Vorinostat + Trametinib; first compound 0.8 µM): 0.392
relative viability (Vorinostat + Trametinib; first compound 2.53 µM): 0.27
relative viability (Vorinostat + Trametinib; first compound 8 µM): 0.267
relative viability (Vorinostat + Foretinib; first compound 0.253 µM): 0.855
relative viability (Vorinostat + Foretinib; first compound 0.8 µM): 0.821
relative viability (Vorinostat + Foretinib; first compound 2.53 µM): 0.378
relative viability (Vorinostat + Foretinib; first compound 8 µM): 0.329
relative viability (Vorinostat + Lapatinib; first compound 0.253 µM): 0.632
relative viability (Vorinostat + Lapatinib; first compound 0.8 µM): 0.736
relative viability (Vorinostat + Lapatinib; first compound 2.53 µM): 0.335
relative viability (Vorinostat + Lapatinib; first compound 8 µM): 0.227
relative viability (Vorinostat + Linsitinib; first compound 0.253 µM): 0.236
relative viability (Vorinostat + Linsitinib; first compound 0.8 µM): 0.351
relative viability (Vorinostat + Linsitinib; first compound 2.53 µM): 0.15
relative viability (Vorinostat + Linsitinib; first compound 8 µM): 0.289
relative viability (Vorinostat + Dasatinib; first compound 0.253 µM): 0.486
relative viability (Vorinostat + Dasatinib; first compound 0.8 µM): 0.423
relative viability (Vorinostat + Dasatinib; first compound 2.53 µM): 0.262
relative viability (Vorinostat + Dasatinib; first compound 8 µM): 0.206

LOU-NH91
relative viability (Vorinostat + Trametinib; first compound 0.253 µM): 0.883
relative viability (Vorinostat + Trametinib; first compound 0.8 µM): 0.857
relative viability (Vorinostat + Trametinib; first compound 2.53 µM): 0.754
relative viability (Vorinostat + Trametinib; first compound 8 µM): 0.455
relative viability (Vorinostat + Foretinib; first compound 0.253 µM): 1.08
relative viability (Vorinostat + Foretinib; first compound 0.8 µM): 0.917
relative viability (Vorinostat + Foretinib; first compound 2.53 µM): 0.758
relative viability (Vorinostat + Foretinib; first compound 8 µM): 0.347
relative viability (Vorinostat + Lapatinib; first compound 0.253 µM): 0.843
relative viability (Vorinostat + Lapatinib; first compound 0.8 µM): 0.799
relative viability (Vorinostat + Lapatinib; first compound 2.53 µM): 0.688
relative viability (Vorinostat + Lapatinib; first compound 8 µM): 0.346
relative viability (Vorinostat + Linsitinib; first compound 0.253 µM): 1.1
relative viability (Vorinostat + Linsitinib; first compound 0.8 µM): 0.901
relative viability (Vorinostat + Linsitinib; first compound 2.53 µM): 0.547
relative viability (Vorinostat + Linsitinib; first compound 8 µM): 0.338
relative viability (Vorinostat + Dasatinib; first compound 0.253 µM): 0.661
relative viability (Vorinostat + Dasatinib; first compound 0.8 µM): 0.577
relative viability (Vorinostat + Dasatinib; first compound 2.53 µM): 0.544
relative viability (Vorinostat + Dasatinib; first compound 8 µM): 0.361

RERF-LC-KJ
relative viability (Vorinostat + Trametinib; first compound 0.253 µM): 0.897
relative viability (Vorinostat + Trametinib; first compound 0.8 µM): 0.732
relative viability (Vorinostat + Trametinib; first compound 2.53 µM): 0.308
relative viability (Vorinostat + Trametinib; first compound 8 µM): 0.201
relative viability (Vorinostat + Foretinib; first compound 0.253 µM): 1
relative viability (Vorinostat + Foretinib; first compound 0.8 µM): 0.791
relative viability (Vorinostat + Foretinib; first compound 2.53 µM): 0.743
relative viability (Vorinostat + Foretinib; first compound 8 µM): 0.248
relative viability (Vorinostat + Lapatinib; first compound 0.253 µM): 0.938
relative viability (Vorinostat + Lapatinib; first compound 0.8 µM): 0.781
relative viability (Vorinostat + Lapatinib; first compound 2.53 µM): 0.733
relative viability (Vorinostat + Lapatinib; first compound 8 µM): 0.227
relative viability (Vorinostat + Linsitinib; first compound 0.253 µM): 0.983
relative viability (Vorinostat + Linsitinib; first compound 0.8 µM): 0.855
relative viability (Vorinostat + Linsitinib; first compound 2.53 µM): 0.694
relative viability (Vorinostat + Linsitinib; first compound 8 µM): 0.168
relative viability (Vorinostat + Dasatinib; first compound 0.253 µM): 0.817
relative viability (Vorinostat + Dasatinib; first compound 0.8 µM): 0.543
relative viability (Vorinostat + Dasatinib; first compound 2.53 µM): 0.212
relative viability (Vorinostat + Dasatinib; first compound 8 µM): 0.24

NCI-H2347
relative viability (Vorinostat + Trametinib; first compound 0.253 µM): 0.242
relative viability (Vorinostat + Trametinib; first compound 0.8 µM): 0.327
relative viability (Vorinostat + Trametinib; first compound 2.53 µM): 0.226
relative viability (Vorinostat + Trametinib; first compound 8 µM): 0.203
relative viability (Vorinostat + Foretinib; first compound 0.253 µM): 1.02
relative viability (Vorinostat + Foretinib; first compound 0.8 µM): 0.84
relative viability (Vorinostat + Foretinib; first compound 2.53 µM): 0.587
relative viability (Vorinostat + Foretinib; first compound 8 µM): 0.198
relative viability (Vorinostat + Lapatinib; first compound 0.253 µM): 0.988
relative viability (Vorinostat + Lapatinib; first compound 0.8 µM): 1.04
relative viability (Vorinostat + Lapatinib; first compound 2.53 µM): 0.766
relative viability (Vorinostat + Lapatinib; first compound 8 µM): 0.341
relative viability (Vorinostat + Linsitinib; first compound 0.253 µM): 0.992
relative viability (Vorinostat + Linsitinib; first compound 0.8 µM): 0.982
relative viability (Vorinostat + Linsitinib; first compound 2.53 µM): 0.766
relative viability (Vorinostat + Linsitinib; first compound 8 µM): 0.306
relative viability (Vorinostat + Dasatinib; first compound 0.253 µM): 0.283
relative viability (Vorinostat + Dasatinib; first compound 0.8 µM): 0.295
relative viability (Vorinostat + Dasatinib; first compound 2.53 µM): 0.271
relative viability (Vorinostat + Dasatinib; first compound 8 µM): 0.189

NCI-H1993
relative viability (Vorinostat + Trametinib; first compound 0.253 µM): 0.649
relative viability (Vorinostat + Trametinib; first compound 0.8 µM): 0.61
relative viability (Vorinostat + Trametinib; first compound 2.53 µM): 0.548
relative viability (Vorinostat + Trametinib; first compound 8 µM): 0.36
relative viability (Vorinostat + Foretinib; first compound 0.253 µM): 0.84
relative viability (Vorinostat + Foretinib; first compound 0.8 µM): 0.801
relative viability (Vorinostat + Foretinib; first compound 2.53 µM): 0.747
relative viability (Vorinostat + Foretinib; first compound 8 µM): 0.494
relative viability (Vorinostat + Lapatinib; first compound 0.253 µM): 0.959
relative viability (Vorinostat + Lapatinib; first compound 0.8 µM): 1
relative viability (Vorinostat + Lapatinib; first compound 2.53 µM): 0.579
relative viability (Vorinostat + Lapatinib; first compound 8 µM): 0.399
relative viability (Vorinostat + Linsitinib; first compound 0.253 µM): 0.836
relative viability (Vorinostat + Linsitinib; first compound 0.8 µM): 0.861
relative viability (Vorinostat + Linsitinib; first compound 2.53 µM): 0.575
relative viability (Vorinostat + Linsitinib; first compound 8 µM): 0.614
relative viability (Vorinostat + Dasatinib; first compound 0.253 µM): 0.655
relative viability (Vorinostat + Dasatinib; first compound 0.8 µM): 0.626
relative viability (Vorinostat + Dasatinib; first compound 2.53 µM): 0.544
relative viability (Vorinostat + Dasatinib; first compound 8 µM): 0.41
